The first experiment addresses T1, G-protein coupled receptor 84 (Homo sapiens, UniProt Q9NQS5). The experiment is described as follows: Antagonist activity against GPR84 (unknown origin) expressed in cell membranes assessed as inhibition of 3,3'-di-indolylmethane-induced [35S]GTPgammaS binding treated for 90 mins after 3,3'-di-indolylmethane stimulation in buffer containing 20 mM HEPES at pH 7.4 by top-count assay. The class given is functional. (In general: GTPγS is a poorly hydrolysed GTP analogue; its binding reports G protein activation.)
T1 sequence (Q9NQS5 whole entry): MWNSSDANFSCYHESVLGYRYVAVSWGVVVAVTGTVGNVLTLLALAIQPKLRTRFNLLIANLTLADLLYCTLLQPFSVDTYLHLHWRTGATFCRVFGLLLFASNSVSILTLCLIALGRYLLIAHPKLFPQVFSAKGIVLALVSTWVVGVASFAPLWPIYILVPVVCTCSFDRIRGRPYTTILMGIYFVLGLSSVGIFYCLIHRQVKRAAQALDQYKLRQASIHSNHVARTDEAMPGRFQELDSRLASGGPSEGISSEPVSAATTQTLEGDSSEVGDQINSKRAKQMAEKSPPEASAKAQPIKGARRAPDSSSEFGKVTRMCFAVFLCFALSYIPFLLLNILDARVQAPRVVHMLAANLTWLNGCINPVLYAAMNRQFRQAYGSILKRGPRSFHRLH
The term IC50 denotes the concentration that inhibits the measured activity by half. For the compound `O=c1nc(OCC2CCCO2)cc2n1CCc1cc(OCc3cccc(-c4cncnc4)n3)ccc1-2` (centres undefined), the IC50 is at most 500 nM.

Take `O=c1nc(OCC2CCCO2)cc2n1CCc1cc(OCC3COc4ccccc4O3)ccc1-2` (centres undefined): the IC50 was at most 100 nM.

Consider `NC(=O)COc1ccc2c(c1)CCn1c-2cc(OCC2CCCO2)nc1=O` (centres undefined), for which the IC50 is over 1000 nM.

Regarding `CC(C)N(C)C(=O)COc1ccc2c(c1)CCn1c-2cc(OCC2CCCO2)nc1=O` (centres undefined), the IC50 is over 1000 nM.

As to `CC1(COCc2ccc3c(c2)CCn2c-3cc(OCC3COc4ncccc4O3)nc2=O)COC1` (centres undefined), the IC50 was at most 100 nM.

Turning to `CC(C)(C)NCc1ccc2c(c1)CCn1c-2cc(OCC2COc3ncccc3O2)nc1=O` (centres undefined), the IC50 was over 1000 nM.

Consider `C=CCOc1ccc2c(c1)CCn1c-2cc(OCC2CCCO2)nc1=O` (centres undefined), for which the IC50 is over 1000 nM.

As for `O=C(O)c1ccc(-c2ccc3c(c2)CCn2c-3cc(OCC3CCCO3)nc2=O)cc1` (centres undefined), the IC50 was over 1000 nM.

On to `N#CCOc1ccc2c(c1)CCn1c-2cc(OCC2COc3ncccc3O2)nc1=O` (centres undefined), for which the IC50 was at most 100 nM.

For `CC(C)(O)C#Cc1ccc2c(c1)CCn1c-2cc(OCC2COc3ncccc3O2)nc1=O` (centres undefined), the IC50 is at most 100 nM.

Regarding `CN(C)C(=O)COc1ccc2c(c1)CCn1c-2cc(OCC2CCCO2)nc1=O` (centres undefined), the IC50 is over 1000 nM.

Consider `COc1ccc2c(c1)CCn1c-2cc(OCC2CCc3ccccc3O2)nc1=O` (centres undefined), for which the IC50 is over 1000 nM.

With `O=c1nc(OCC2CCCO2)cc2n1CCc1cc(O)ccc1-2` (centres undefined), the IC50 was over 1000 nM.

Consider `COc1ccc(COc2ccc3c(c2)CCn2c-3cc(OCC3CCCO3)nc2=O)cc1` (centres undefined), for which the IC50 is at most 100 nM.

For `CCC(O)C#Cc1ccc2c(c1)CCn1c-2cc(OCC2COc3ncccc3O2)nc1=O` (centres undefined), the IC50 was at most 100 nM.

For the compound `O=c1nc(OCC2CCCO2)cc2n1CCc1cc(OCc3cccc(-c4ccccc4)n3)ccc1-2` (centres undefined), the IC50 is over 1000 nM.

For the compound `O=c1nc(OCC2COc3ncccc3O2)cc2n1CCc1cc(OCc3ccccn3)ccc1-2` (centres undefined), the IC50 is at most 100 nM.

With `O=C(NCC1COC1)c1ccc2c(c1)CCn1c-2cc(OCC2COc3ncccc3O2)nc1=O` (centres undefined), the IC50 was over 1000 nM.

As to `O=c1nc(OCC2COc3ncccc3O2)cc2n1CCc1cc(COCCN3CCOCC3)ccc1-2` (centres undefined), the IC50 is at most 100 nM.

For `Cn1cc(-c2ccc3c(c2)CCn2c-3cc(OCC3CCCO3)nc2=O)cn1` (centres undefined), the IC50 was over 1000 nM.

As to `N#Cc1ccc(-c2ccc3c(c2)CCn2c-3cc(OCC3CCCO3)nc2=O)cc1` (centres undefined), the IC50 is over 1000 nM.

With `O=c1nc(OCC2COc3ncccc3O2)cc2n1CCc1cc(COC3COC3)ccc1-2` (centres undefined), the IC50 is at most 100 nM.

In the case of `O=c1nc(OCC2CCCO2)cc2n1CCc1cc(OCc3cccc([N+](=O)[O-])c3)ccc1-2` (centres undefined), the IC50 was at most 100 nM.

Turning to `O=c1nc(OCC2COc3ncccc3O2)cc2n1CCc1cc(-c3cn[nH]c3)ccc1-2` (centres undefined), the IC50 is at most 100 nM.

For `CCN(CC)C(=O)COc1ccc2c(c1)CCn1c-2cc(OCC2CCCO2)nc1=O` (centres undefined), the IC50 is over 1000 nM.

On to `O=c1nc(OCC2COc3ncccc3O2)cc2n1CCc1cc(C#CCNCc3ccccc3)ccc1-2` (centres undefined), for which the IC50 was at most 100 nM.

Regarding `CC(C)C(O)C#Cc1ccc2c(c1)CCn1c-2cc(OCC2COc3ncccc3O2)nc1=O` (centres undefined), the IC50 is at most 100 nM.

For `CCCC(O)C#Cc1ccc2c(c1)CCn1c-2cc(OCC2COc3ncccc3O2)nc1=O` (centres undefined), the IC50 was at most 100 nM.

Turning to `O=c1nc(OCC2COc3ncccc3O2)cc2n1CCc1cc(CN3CCCCC3)ccc1-2` (centres undefined), the IC50 was at most 100 nM.

Take `O=c1nc(OCC2CCCO2)cc2n1CCc1cc(OCCOc3ccccc3)ccc1-2` (centres undefined): the IC50 is at most 100 nM.

Regarding `O=c1nc(OCC2COc3ccccc3O2)cc2n1CCc1cc(OCc3nnn[nH]3)ccc1-2` (centres undefined), the IC50 is at most 100 nM.

As to `N#CCOc1ccc2c(c1)CCn1c-2cc(OCC2CCCO2)nc1=O` (centres undefined), the IC50 is over 1000 nM.

For `O=c1nc(OCC2COc3ncccc3O2)cc2n1CCc1cc(OCc3nnn[nH]3)ccc1-2` (centres undefined), the IC50 was at most 100 nM.

Consider `CC(O)C#Cc1ccc2c(c1)CCn1c-2cc(OCC2COc3ncccc3O2)nc1=O` (centres undefined), for which the IC50 is at most 100 nM.

As to `O=c1nc(OCC2COc3ncccc3O2)cc2n1CCc1cc(OCc3ncco3)ccc1-2` (single isomer, unassigned), the IC50 was at most 100 nM.

In another experiment the target is T1, G-protein coupled receptor 84. Briefly: Antagonist activity against GPR84 (unknown origin) expressed in cell membranes assessed as inhibition of 3,3'-di-indolylmethane-induced [35S]GTPgammaS binding treated for 90 mins after 3,3'-di-indolylmethane stimulation in buffer containing 20 mM Tris at pH 7.5 by top-count assay. Format: functional.
In the case of `CN(C)C(=O)c1cccc(-c2ccc3c(c2)CCn2c-3cc(OCC3CCCO3)nc2=O)c1` (centres undefined), the IC50 was over 1000 nM.

For `CC(C)(C)OC(=O)n1cccc1-c1ccc2c(c1)CCn1c-2cc(OCC2CCCO2)nc1=O` (centres undefined), the IC50 was over 1000 nM.

Take `Cc1cccc(C)c1-c1ccc2c(c1)CCn1c-2cc(OCC2CCCO2)nc1=O` (centres undefined): the IC50 is over 1000 nM.

Consider `O=c1nc(OCC2CCCO2)cc2n1CCc1cc(-c3cncnc3)ccc1-2` (centres undefined), for which the IC50 is over 1000 nM.

(Values after ChEMBL document CHEMBL3714727, “Novel dihydropyrimidinoisoquinolinones and pharmaceutical compositions thereof for the treatment of inflammatory disorders (gpr84 antagonists)” (2014).)
